Where two headings read alike, the source gives them in different places.
Key:
[1] = test system: E-selectin ligand activity of murine Th1 cells; assay: Flow chamber analysis of E-selectin binding on murine Th1 cells; format: cell-based, mouse
Excerpt: CD4+ splenocytes were isolated from C57BL-6 mice by anti-murine CD4 L3T4 magnetic bead technology (Miltenyi Biotec) according to manufacturer's protocol. […] Culturing murine T helper cells in the presence of murine IL-12 and anti-murine IL-4 produces selectin binding Th1 cells by up-regulating FucTVII (69, 70) and core 2 enzyme (43–45, 71, 72), both critical for selectin ligand synthesis (i.e. decoration of PSGL-1 (67, 68)), and prevents the production of non-selectin binding Th2 cells (67–72). Th1 cells were also generated from mice deficient in α1,3 fucosyltransferase, FucTVII, and served as negative controls (33, 38, 40). Cells were harvested and re-plated at 2×10^6cells/ml on non-Ab coated plastic with murine IL-2 (20 ng/ml) in the presence or absence of murine IL-12 (10 ng/ml) and anti-murine IL-4 moAb 11B11 (10 μg/ml) for 48 h. […] Glycosylation inhibitors were added to cultures on day 6.5 for 30 hr, after first treating cells with neuraminidase (0.1 U/ml for 1 hr at 37° C.) to remove all cell surface terminal sialic acid resides and E and P-selectin ligand activity. Since selectin ligands are dependent on terminal sialic acid (α2,3 N-acetylneuraminic acid) for activity, this approach allowed for analysis of de novo synthesized selectin ligands in the presence of 0.05 mM 4-F-GlcNAc, N-glycan inhibitors, 0.23 mM swainsonine and 0.02 mM tunicamycin, and 1 mM GlcNAc (negative control).

[2] = test system: C57BL6 mice; assay: DNFB-induced delayed type hypersensitivity (ear swelling) in mice; format: in vivo, mouse
Experimental: Previous studies evaluating the anti-tumor and anti-metastatic effects of fluorinated hexosamine analogs and 3 or 4-F-GlcNAc, specifically, indicate that the dose limiting toxicity was ˜250 mg/kg×6 days and that i.p. administration of these sugar analogs was an efficacious mode of delivery. Thus, in these studies, a maximal dose of 250 mg/kg as well as 100 and […] doses were used in order to make both toxic and efficacy assessments of fluorinated hexosamine analog anti-inflammatory effects. To induce delayed type hypersensitivity (DTH), C57BL6 mice were sensitized on their abdomen on days 0 and 1 with 25 μl of 0.5% 2,4-dinitrofluorobenzene (DNFB) (i.e. hapten) in a 4:1 solution of acetone to olive oil (vehicle). Negative control mice were sensitized with vehicle alone. Mice were then treated from days 0–6 with drug vehicle (0.9% saline), 50 mg/kg 4-F-GlcNAc, 100 mg/kg 4-F-GlcNAc, 250 mg/kg 4-F-GlcNAc or 250 mg/kg GlcNAc (negative sugar control). Hapten-induced inflammation was then promoted on day 6 by challenging the mice with 10 μl of 0.25% DNFB on both sides of the right ear and mice also received 10 μl of vehicle alone on both sides of the left ear as a negative inflammatory control. Ear swelling responses were measured 24 h later on day 7 and subtracted from baseline measurements that were recorded on day 6.
Histological analysis of right ears from mice receiving sensitizing and challenging hapten doses that were treated with saline vehicle control did show the presence of lymphocytic infiltrate and amount of lymphocytic infiltrate corresponded to ear swelling measurements (See FIG. 14 Panel B).

[3] = test system: human CLA+ T-cells; assay: Growth inhibition of human CLA+ T-cell cultures (Trypan-blue exclusion); format: cell-based
Experimental: To determine a suitable concentration of 4-F-GlcNAc for examining glycoconjugate-modifying effects without influencing cell growth or protein synthesis, we performed preliminary growth inhibitory experiments of cells incubated with 4-F-GlcNAc for 2 cell doublings (˜36 h) at 37° C. (cell viability assessed by Trypan-blue exclusion).

[4] = test system: terminal GlcNAc or GlcNAcβ1,4GlcNAc (WGA staining); assay: Lectin blot with WGA of CLA+ T-cell lysates; format: cell-based, human; details: compared with PBS or GlcNAc treatments
Experimental: (§1) For lectin blotting, cell lysates (25 μg/spot) were spotted onto methanol-permeabilized PVDF membrane and blocked in FBS for 1 h at RT. Blots were then probed with AP-Canavalia ensiformis agglutinin (ConA) (2.0 μg/ml PBS; specificity: α-mannose), AP-Triticum vulgaris (Wheat germ) agglutinin (WGA) (0.5 μg/ml PBS; specificity: terminal GlcNAc or GlcNAcβ1,4GlcNAc) or AP-Lycopersicon esculentum (tomato lectin) agglutinin (LEA) (1.0 μg/ml PBS; specificity: (Galβ1,4GlcNAc)n) for 1 h at RT (All lectins from EY Labs., Inc., San Mateo, Calif.). After washing 3× in PBS/0.1% Tween-20 and 1× in PBS (10 min each), blots were developed with Western Blue®.
(§2) To analyze and identify the glycan modifications on CLA^+ T-cells treated with 4-F-GlcNAc, lectin blotting experiments were performed with ConA (Specificity: α-mannose), WGA (Specificity: terminal GlcNAc or GlcNAcβ1,4GlcNAc) and LEA (Specificity: {Galβ1,4GlcNAc}n).

[5] = test system: (Galβ1,4GlcNAc)n (LEA staining); assay: Lectin blot with LEA of CLA+ T-cell lysates; format: cell-based, human; details: compared with PBS or GlcNAc treatments
Experimental: as §1, §2

[6] = test system: HCELL/CD44 activity on human hematopoietic KG1a cells; assay: Stamper-Woodruff adhesion assay, L-selectin-dependent lymphocyte adherence to KG1a cells; format: cell-based; details: KG1a neuraminidase then recovery in 0.02 mM
[7] = 30 hr after neuraminidase, 0.05 mM 4-F-GlcNAc, 0.23 mM swainsonine, 0.02 mM tunicamycin, 1 mM GlcNAc

Compound: CC(=O)N[C@H]1C(O)O[C@H](CO)[C@@H](O)[C@@H]1O (some centres unmarked) [GlcNAc, N-acetylglucosamine]
- recovery of E-selectin ligand activity of Th1 cells [1, 7]: no effect
- inflammatory response (ear swelling) ([2]; 250 mg/kg negative sugar control, days 0–6): no anti-inflammatory effect

Compound: O[C@H]1[C@H]2[C@H](O)CCCN2C[C@H]1O [swainsonine]
- recovery of E-selectin ligand activity of Th1 cells [1]: no effect

Compound: CC(=O)N[C@H]1C(OC(C)=O)O[C@H](COC(C)=O)[C@@H](F)[C@@H]1OC(C)=O (stereo partly drawn) [4-F-GlcNAc, 2-acetamido-2-deoxy-1,3,6-tri-O-acetyl-4-deoxy-4-fluoro-D-glucopyranose]
- IC10 value (growth inhibition) ([3]; 2 cell doublings (~36 h) at 37° C., Trypan-blue exclusion): > 200 µM
- growth inhibitory effects on CLA+ T-cell cultures ([3]; treated for 36 hr at concentrations less than 0.5 mM): no inhibition of growth
- WGA staining of lysates [4]: elevated
- LEA staining of lysates [5]: notably diminished
- recovery of E-selectin ligand activity of Th1 cells [1, 7]: completely inhibited
- inflammatory response (ear swelling) ([2]; 50 mg/kg, days 0–6, i.p., p<0.0002): statistically significant diminution
- inflammatory response (ear swelling) ([2]; 100 mg/kg, days 0–6, i.p.): completely abrogated
- inflammatory response (ear swelling) ([2]; 250 mg/kg, days 0–6, i.p.): completely abrogated
- inflammatory responses in FucTVII −/− mice ([2]; FucTVII −/− mice): further reduced

Compound: tunicamycin
- WGA staining of lysates [4]: eliminated
- LEA staining of lysates [5]: eliminated
- recovery of E-selectin ligand activity of Th1 cells [1]: completely inhibited
- % Inhibition (lymphocyte binding) [6]: 99%
- Mean Lymphocyte Binding [6]: 3.0
